Measurements from ChEMBL document CHEMBL1142734, “Biological properties of D- and L-1-deoxyazasugars” (J Med Chem, 2005).

Columns and labels:
[1] = target: T1, Cytosolic beta-glucosidase (Homo sapiens, UniProt Q9H227); experiment: Inhibitory concentration against beta-glucosidase
T1 sequence (Q9H227 whole entry): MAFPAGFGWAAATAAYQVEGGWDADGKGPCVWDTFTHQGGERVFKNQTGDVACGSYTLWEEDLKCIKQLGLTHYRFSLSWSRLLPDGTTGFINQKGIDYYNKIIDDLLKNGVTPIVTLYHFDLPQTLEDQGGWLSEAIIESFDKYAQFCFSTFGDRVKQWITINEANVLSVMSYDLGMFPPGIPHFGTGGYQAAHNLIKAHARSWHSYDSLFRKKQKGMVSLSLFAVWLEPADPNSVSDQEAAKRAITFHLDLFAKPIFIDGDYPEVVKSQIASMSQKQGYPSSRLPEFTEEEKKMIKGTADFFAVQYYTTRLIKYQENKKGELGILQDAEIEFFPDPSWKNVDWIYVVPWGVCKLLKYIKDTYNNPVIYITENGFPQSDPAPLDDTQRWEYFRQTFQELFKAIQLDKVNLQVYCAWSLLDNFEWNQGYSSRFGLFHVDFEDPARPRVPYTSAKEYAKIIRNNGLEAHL

[2] = target: T2, Beta-galactosidase (Rattus norvegicus) (UniProt D3ZUM4); experiment: Percent inhibition of beta galactosidase of rat epididymis at 1000 uM
T2 sequence (whole entry): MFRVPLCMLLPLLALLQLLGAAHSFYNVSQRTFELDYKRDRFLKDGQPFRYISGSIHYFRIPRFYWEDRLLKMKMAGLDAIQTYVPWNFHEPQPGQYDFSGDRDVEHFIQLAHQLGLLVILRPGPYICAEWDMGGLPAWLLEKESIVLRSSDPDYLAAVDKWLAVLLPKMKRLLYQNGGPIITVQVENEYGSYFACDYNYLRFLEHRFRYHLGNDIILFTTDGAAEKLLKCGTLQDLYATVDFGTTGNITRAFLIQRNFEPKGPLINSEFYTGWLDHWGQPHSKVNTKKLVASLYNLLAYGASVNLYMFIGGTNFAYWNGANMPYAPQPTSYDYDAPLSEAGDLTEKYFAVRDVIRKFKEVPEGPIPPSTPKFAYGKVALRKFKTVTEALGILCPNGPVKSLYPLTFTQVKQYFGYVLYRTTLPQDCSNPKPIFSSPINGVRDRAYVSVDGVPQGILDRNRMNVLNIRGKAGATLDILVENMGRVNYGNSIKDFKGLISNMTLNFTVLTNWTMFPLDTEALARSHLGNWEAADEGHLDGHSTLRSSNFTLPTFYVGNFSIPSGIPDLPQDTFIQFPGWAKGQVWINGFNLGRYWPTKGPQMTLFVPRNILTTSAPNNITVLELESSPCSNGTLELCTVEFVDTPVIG

[3] = target: T1, Cytosolic beta-glucosidase; experiment: Inhibitory concentration against human beta-glucosidase
[4] = target: T2, Beta-galactosidase (Rattus norvegicus); experiment: Percent inhibition of beta-galactosidase of rat epididymis at 1000 uM
[5] = target: T3, Tissue alpha-L-fucosidase (Bos taurus, UniProt Q2KIM0); experiment: Ki value against bovine alpha-L-fucosidase
T3 sequence (Q2KIM0 whole entry): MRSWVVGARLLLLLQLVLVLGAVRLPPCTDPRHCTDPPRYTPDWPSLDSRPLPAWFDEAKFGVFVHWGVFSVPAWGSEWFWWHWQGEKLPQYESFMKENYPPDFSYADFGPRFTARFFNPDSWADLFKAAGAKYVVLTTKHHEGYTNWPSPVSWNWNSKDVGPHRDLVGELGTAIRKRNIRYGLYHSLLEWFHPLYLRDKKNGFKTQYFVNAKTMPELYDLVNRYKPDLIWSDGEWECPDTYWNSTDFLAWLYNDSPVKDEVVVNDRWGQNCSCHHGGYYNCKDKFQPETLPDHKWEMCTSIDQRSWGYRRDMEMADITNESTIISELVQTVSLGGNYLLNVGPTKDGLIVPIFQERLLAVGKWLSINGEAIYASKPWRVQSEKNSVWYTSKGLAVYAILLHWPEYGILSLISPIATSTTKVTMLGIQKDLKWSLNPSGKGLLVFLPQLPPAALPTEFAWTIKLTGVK

[6] = target: Alpha-galactosidase (Coffea arabica) (UniProt Q5DUH8); settings: 1000 uM
[7] = target: T3, Tissue alpha-L-fucosidase; experiment: Inhibitory concentration against alpha-L-fucosidase of bovine epididymis
[8] = target: T4, Tissue alpha-L-fucosidase (Bos taurus) (UniProt Q2KIM0); settings: 1000 uM
T4 sequence (whole entry): T3 sequence (Q2KIM0 whole entry)

[9] = target: T3, Tissue alpha-L-fucosidase; experiment: Inhibitory concentration against bovine alpha-L-fucosidase
Alpha-galactosidase C = target: T5, Alpha-galactosidase C (Aspergillus niger, UniProt Q9UUZ4); experiment: Inhibitory concentration against alpha-galactosidase of Aspergillus niger
T5 sequence (Q9UUZ4 whole entry): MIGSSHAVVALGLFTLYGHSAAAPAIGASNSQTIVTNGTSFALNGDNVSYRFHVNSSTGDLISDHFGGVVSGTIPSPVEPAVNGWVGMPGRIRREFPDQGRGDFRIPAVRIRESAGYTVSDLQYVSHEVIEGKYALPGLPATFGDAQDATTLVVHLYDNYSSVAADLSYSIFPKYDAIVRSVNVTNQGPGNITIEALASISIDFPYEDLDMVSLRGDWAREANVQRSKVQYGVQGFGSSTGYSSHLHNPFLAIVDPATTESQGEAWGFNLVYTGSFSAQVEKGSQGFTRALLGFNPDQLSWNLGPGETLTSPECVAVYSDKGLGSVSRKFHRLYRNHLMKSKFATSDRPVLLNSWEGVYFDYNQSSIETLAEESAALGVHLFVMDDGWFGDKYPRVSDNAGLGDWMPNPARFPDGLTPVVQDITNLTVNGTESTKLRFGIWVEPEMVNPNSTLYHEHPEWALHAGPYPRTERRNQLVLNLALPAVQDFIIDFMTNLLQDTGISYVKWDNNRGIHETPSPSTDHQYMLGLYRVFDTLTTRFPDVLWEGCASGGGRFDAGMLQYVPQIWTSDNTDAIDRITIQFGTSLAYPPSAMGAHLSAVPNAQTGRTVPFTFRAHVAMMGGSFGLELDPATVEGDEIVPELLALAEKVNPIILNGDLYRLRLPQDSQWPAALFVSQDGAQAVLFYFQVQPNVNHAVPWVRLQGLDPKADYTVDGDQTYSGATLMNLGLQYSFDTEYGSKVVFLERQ

Alpha-galactosidase (Coffea arabica), sequence (Q5DUH8 as listed by the source): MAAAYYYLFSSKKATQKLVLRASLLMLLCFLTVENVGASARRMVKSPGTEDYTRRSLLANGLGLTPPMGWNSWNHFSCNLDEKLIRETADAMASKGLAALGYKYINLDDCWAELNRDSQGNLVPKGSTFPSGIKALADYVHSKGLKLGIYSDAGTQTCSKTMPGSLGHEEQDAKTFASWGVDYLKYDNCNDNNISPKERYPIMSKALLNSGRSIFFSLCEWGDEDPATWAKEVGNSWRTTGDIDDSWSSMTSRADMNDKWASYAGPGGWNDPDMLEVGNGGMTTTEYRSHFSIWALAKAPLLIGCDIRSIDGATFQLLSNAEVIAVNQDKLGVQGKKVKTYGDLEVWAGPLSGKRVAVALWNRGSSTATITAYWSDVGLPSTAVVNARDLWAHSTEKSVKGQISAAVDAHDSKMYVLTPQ

SMILES	inhibition [4]	inhibition [6]	inhibition [8]	also measured
OC[C@H]1NC[C@H](O)[C@@H](O)[C@@H]1O [DUVOGLUSTAT]				IC50 [1]: 80 µM; inhibition [2]: < 50%; IC50 [3]: 240 µM
OC[C@@H]1NC[C@@H](O)[C@@H](O)[C@@H]1O	< 50%	< 50%		Ki [5]: 14 µM; IC50 [7]: 156 µM
OC[C@H]1NC[C@H](O)[C@H](O)[C@H]1O	< 50%		< 50%	
OC[C@@H]1NC[C@@H](O)[C@H](O)[C@@H]1O				Ki [5]: 0.08 µM; IC50 [9]: 0.63 µM
OC[C@@H]1NC[C@@H](O)[C@H](O)[C@H]1O		< 50%	< 50%	IC50 [1]: 980 µM; inhibition [2]: < 50%
OC[C@H]1NC[C@@H](O)[C@@H](O)[C@@H]1O [DEOXYMANNOJIRIMYCIN]	< 50%	< 50%		Ki [5]: 4.7 µM; IC50 [7]: 39 µM
OC[C@@H]1NC[C@H](O)[C@@H](O)[C@@H]1O	< 50%	< 50%	< 50%	
OC[C@H]1NC[C@@H](O)[C@H](O)[C@H]1O	< 50%		< 50%	IC50 [1]: 60 µM; IC50 [3]: 66 µM
OC[C@@H]1NC[C@@H](O)[C@@H](O)[C@H]1O	< 50%		< 50%	
OC[C@H]1NC[C@H](O)[C@@H](O)[C@H]1O			< 50%	IC50 (Alpha-galactosidase C): 1.8 µM
OC[C@H]1NC[C@H](O)[C@H](O)[C@@H]1O	< 50%		< 50%	
OC[C@@H]1NC[C@H](O)[C@H](O)[C@H]1O	< 50%	< 50%	< 50%	
